In patent US20130252930A1 (BIOMARIN PHARMACEUTICAL INC., priority 2010, published 2013):
Where two headings read alike, the source gives them in different places.

Experiments:
CYP17 (H295R cells) = molecular target: T1, CYP17 (H295R cells) (Homo sapiens, UniProt P05093); experiment: CYP17 cellular assay (IC50), testosterone in H295R cells (Biological Example 7); type: cell-based; conditions: H295R cells, testosterone
T1 construct: endogenous in cells; host or cells: H295R cells
T1 sequence (P05093 1-508): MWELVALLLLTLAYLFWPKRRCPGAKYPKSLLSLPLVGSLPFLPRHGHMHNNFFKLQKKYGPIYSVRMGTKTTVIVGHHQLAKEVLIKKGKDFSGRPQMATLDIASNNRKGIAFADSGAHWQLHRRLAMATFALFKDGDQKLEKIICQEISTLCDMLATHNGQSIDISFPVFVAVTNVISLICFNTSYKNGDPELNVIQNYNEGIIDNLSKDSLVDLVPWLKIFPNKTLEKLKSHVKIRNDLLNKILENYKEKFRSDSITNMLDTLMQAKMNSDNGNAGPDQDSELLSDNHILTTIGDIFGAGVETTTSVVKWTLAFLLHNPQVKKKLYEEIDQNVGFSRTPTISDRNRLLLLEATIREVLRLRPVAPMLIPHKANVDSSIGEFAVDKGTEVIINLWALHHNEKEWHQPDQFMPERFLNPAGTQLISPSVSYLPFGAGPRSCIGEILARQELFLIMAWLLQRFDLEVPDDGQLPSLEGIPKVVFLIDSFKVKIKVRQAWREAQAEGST
Method: The assays were performed in 96-well plates. Typically H295R cells were seeded at 4.5×10^4 cells/well in 100 μL Growth Medium containing DMEM/F-12 (Gibco/Invitrogen; 11330-032), 2.5% Nu-Serum (BD Bioscience; 355100) and ITS (BD Bioscience; 354352), and cultured at 37° C., 5% CO2 for 24 hr. The next day, media were carefully removed and cells were washed twice with 200 μL 1×HBSS++. Test compounds were then added to the cells at 100, 10, 1, 0.1 nM final concentrations in 125 μL volume per well in serum-free media containing DMEM/F-12 and ITS+ Premix (BD Bioscience; 354352) with 0.1% methanol. Serum-free media with 0.1% methanol without test compound was used as control. Cells were incubated with compounds at 37° C. for additional 24 hours, and the cultured media from each compound treated well was harvested for measurement of testosterone concentration by ELISA according to manufacturer's instruction (Assay Design). Testosterone concentration of each sample was plotted vs. the concentration of the test compounds.

[1] = molecular target: T2, CYP17 (human testicular microsome) (Homo sapiens, UniProt P05093); experiment: CYP17 enzymatic assay (% inhibition at 1 nM) (Biological Example 12); type: biochemical
T2 construct: using microsomal fraction from human testis (Celsis Cat #S00110) as the enzyme source; tissue Celsis S00110; host or cells: human testis microsomal fraction
T2 sequence (P05093 1-508): T1 sequence (P05093 1-508)

[2] = molecular target: T2, CYP17 (human testicular microsome); experiment: CYP17 enzymatic assay (IC50) (Biological Example 4); type: biochemical
[3] = Human liver microsome stability assay (Biological Example 8b); conditions: liver microsomes, pH 7.4
Method: The reaction was started with addition of excess NADPH (5 mg/mL, 15 μL in 0.1 M potassium phosphate buffer, 1.0 mM EDTA, pH 7.4), the total volume is 45 μL (compound final concentration was 1 μM). […] 50 μL of the supernatant was transferred from each well into a 96-well sample plate containing 50 μL of ultra-pure water (Millipore) for LC-MS/MS analysis.

[4] = molecular target: T3, Cyp21 enzyme (Human HEK 293-Cyp21 stable transfected cells) (Homo sapiens, UniProt P08686); experiment: CYP21-HEK293 enzymatic assay (IC50) (Biological Example 11); type: cell-based
T3 construct: expressed in transfected cells
T3 sequence (P08686 1-495): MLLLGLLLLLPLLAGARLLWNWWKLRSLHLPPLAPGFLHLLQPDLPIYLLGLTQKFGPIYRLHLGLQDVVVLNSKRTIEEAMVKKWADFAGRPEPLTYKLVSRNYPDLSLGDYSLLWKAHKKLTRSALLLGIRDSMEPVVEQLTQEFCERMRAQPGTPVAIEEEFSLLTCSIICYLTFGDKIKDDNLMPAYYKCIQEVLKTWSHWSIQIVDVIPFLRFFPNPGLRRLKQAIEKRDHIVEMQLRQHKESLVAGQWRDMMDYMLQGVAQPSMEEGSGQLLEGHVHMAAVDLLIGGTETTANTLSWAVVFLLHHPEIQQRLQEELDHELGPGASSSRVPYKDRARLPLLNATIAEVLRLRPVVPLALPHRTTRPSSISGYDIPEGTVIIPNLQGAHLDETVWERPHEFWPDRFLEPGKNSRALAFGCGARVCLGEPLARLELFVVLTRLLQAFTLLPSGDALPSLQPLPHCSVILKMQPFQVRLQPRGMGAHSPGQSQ

[5] = molecular target: T2, CYP17 (human testicular microsome); experiment: CYP17 enzymatic assay (% inhibition at 10 nM), version 1 (Biological Example 5); type: biochemical; conditions: test compound at 10 nM, read-out: CYP17 enzymatic assay percent inhibition at 10 nM (Biological Example No. 5)
[6] = compound at 1 nM, read-out: CYP17 enzymatic assay % inhibition at 1 nM (Biological Example No. 12)
[7] = compound at 1 nM, read-out: Biological Example No. 12: CYP17 enzymatic assay % inhibition at 1 nM
[8] = human testicular microsome, read-out: CYP17 enzymatic assay IC50 (Biological Example No. 4)
[9] = HEK 293-Cyp21 cells, read-out: CYP21-HEK293 enzymatic assay IC50 (Biological Example No. 11)
[10] = HEK 293-Cyp21 cells, read-out: Biological Example No. 11: CYP21-HEK293 enzymatic assay IC50
[11] = human testicular microsome, read-out: Biological Example No. 4: CYP17 enzymatic assay IC50

SMILES | inhibition at 0.001 µM [1, 7] | half-life at 1 μM [3] | IC50 [4, 10] | also measured
CN(C)CC(=O)O[C@H]1CC[C@@]2(C)C(=CC[C@H]3C4=CC=C(c5cccnc5)[C@@]4(C)CC[C@@H]32)C1 [195′, (3S,10R,13S)-10,13-dimethyl-17-(pyridin-3-yl)-2,3,4,7,8,9,10,11,12,13-decahydro-1H-cyclopenta[a]phenanthren-3-yl 2-(dimethylamino)acetate] |  |  |  | IC50 (CYP17 (H295R cells); read-out: CYP17 cellular assay IC50 (Biological Example No. 7)): 0.015 to 0.1 µM; inhibition at 0.001 µM [1, 6]: > 50%
C[C@]12CC[C@H]3[C@@H](CC=C4C[C@@H](O)CC[C@@]43C)C1=CC=C2c1cncc(C(F)F)c1 [Compound 272, (3S,10R,13S)-17-(5-(difluoromethyl)pyridin-3-yl)-10,13-dimethyl-2,3,4,7,8,9,10,11,12,13-decahydro-1H-cyclopenta[a]phenanthren-3-ol] | < 10% |  |  | IC50 (CYP17 (H295R cells); read-out: Biological Example No. 7: CYP17 cellular assay IC50): 0.015 to 0.1 µM
C[C@]12CC[C@H]3[C@@H](C=CC4=CC(=O)CC[C@@]43C)C1=CC=C2c1cccnc1 [Compound 289, (10R,13S)-10,13-dimethyl-17-(pyridin-3-yl)-8,9,10,11,12,13-hexahydro-1H-cyclopenta[a]phenanthren-3(2H)-one] |  | 1 to 50 min |  | IC50 [2, 8]: < 0.011 µM; inhibition at 0.001 µM [1, 6]: > 50%; IC50 [4, 9]: 0.01 to 0.1 µM
C[C@]12CCC(=O)C(O)=C1C=C[C@@H]1[C@@H]2CC[C@]2(C)C(c3cccnc3)=CC[C@@H]12 [Compound 301, (10R,13S)-4-hydroxy-10,13-dimethyl-17-(pyridin-3-yl)-8,9,10,11,12,13,14,15-octahydro-1H-cyclopenta[a]phenanthren-3(2H)-one] |  | 1 to 50 min |  | inhibition at 0.001 µM [1, 6]: > 50%; IC50 [4, 9]: > 1 µM
CC1C[C@H]2C3=CC=C(c4cccnc4)[C@@]3(C)CC[C@@H]2[C@@]2(C)CCC(=O)C=C12 (stereo partly drawn) [Compound 315, (10R,13S)-6,10,13-trimethyl-17-(pyridin-3-yl)-6,7,8,9,10,11,12,13-octahydro-1H-cyclopenta[a]phenanthren-3(2H)-one] | > 50% | 1 to 50 min | < 0.01 µM | IC50 [2]: < 0.011 µM
C[C@]12CCC(=O)C=C1C1CC1[C@@H]1[C@@H]2CC[C@]2(C)C(c3cccnc3)=CC[C@@H]12 (stereo partly drawn) [Compound 319, (4aR,6aS)-4a,6a-dimethyl-7-(pyridin-3-yl)-4,4a,4b,5,6,6a,9,9a,9b,9c,10,10a-dodecahydrocyclopenta[a]cyclopropa[l]phenanthren-2(3H)-one] | > 50% | 1 to 50 min | > 0.1 µM | 
C[C@]12CCC(=O)C=C1C(F)C[C@@H]1[C@@H]2CC[C@]2(C)C(c3cncc(F)c3)=CC[C@@H]12 (stereo partly drawn) [Compound 325, (10R,13S)-6-fluoro-17-(5-fluoropyridin-3-yl)-10,13-dimethyl-6,7,8,9,10,11,12,13,14,15-decahydro-1H-cyclopenta[a]phenanthren-3(2H)-one] | > 50% | 1 to 50 min | > 1 µM | IC50 [2, 11]: < 0.011 µM
CC1C[C@H]2C3=CC=C(c4cccnc4)[C@@]3(C)CC[C@@H]2[C@@]2(C)C=CC(=O)C=C12 (stereo partly drawn) [Compound 349, (10R,13S)-6,10,13-trimethyl-17-(pyridin-3-yl)-6,7,8,9,10,11,12,13-octahydro-3H-cyclopenta[a]phenanthren-3-one] |  | 1 to 50 min |  | inhibition at 0.01 µM [5]: > 80%; inhibition at 0.001 µM ([1]; test compound at 1 nM, read-out: CYP17 enzymatic assay percent inhibition at 1 nM (Biological Example No. 12)): > 50%; IC50 ([4]; HEK 293-Cyp21 stable transfected cells, read-out: CYP21-HEK293 enzymatic assay IC50 (Biological Example No. 11)): < 0.01 µM
CC1CC2C(CC[C@]3(C)C(c4cccnc4)=CCC23)[C@@]2(C)CCC(=NO)C=C12 (stereo partly drawn) [Compound 361, (10R,13S)-6,10,13-trimethyl-17-(pyridin-3-yl)-6,7,8,9,10,11,12,13,14,15-decahydro-1H-cyclopenta[a]phenanthren-3(2H)-one oxime] | 10 to 50% | 1 to 50 min | > 0.1 µM | 
C[C@]12CCNC(=O)C=C1C(F)CC1C2CC[C@]2(C)C(c3cccnc3)=CCC12 (stereo partly drawn) [Compound 370, (5aR,7aS)-12-fluoro-5a,7a-dimethyl-8-(pyridin-3-yl)-3,4,5,5a,5b,6,7,7a,10,10a,11,12-dodecahydrocyclopenta[5,6]naphtho[1,2-d]azepin-2(10bH)-one] | > 50% | 1 to 50 min | > 1 µM | IC50 [2, 11]: < 0.011 µM
C[C@]12CCNC(=O)C=C1C1CC1[C@@H]1[C@@H]2CC[C@]2(C)C(c3cccnc3)=CC[C@@H]12 (stereo partly drawn) [Compound 382, (5aR,7aS)-5a,7a-dimethyl-8-(pyridin-3-yl)-3,4,5,5a,5b,6,7,7a,10,10a,10b,10c,11,11a-tetradecahydro-2H-cyclopenta[5,6]cyclopropa[3,4]naphtho[1,2-d]azepin-2-one] | > 50% | 1 to 50 min | > 0.1 µM | IC50 [2, 11]: < 0.011 µM
CC1CC2C3=CC=C(c4cncc(F)c4)[C@@]3(C)CCC2[C@@]2(C)CCNC(=O)C=C12 (stereo partly drawn) [Compound 389, (5aR,7aS)-8-(5-fluoropyridin-3-yl)-5a,7a,12-trimethyl-3,4,5,5a,5b,6,7,7a,11,12-decahydrocyclopenta[5,6]naphtho[1,2-d]azepin-2(10bH)-one] | 10 to 50% | 1 to 50 min | 0.01 to 0.1 µM | 
C[C@]12CCC(=O)C=C1C=CC1C2CC[C@]2(C)C(c3cccnc3)=CCC12 (stereo partly drawn) [Compound 408, (10R,13S)-10,13-dimethyl-17-(pyridin-3-yl)-8,9,10,11,12,13,14,15-octahydro-1H-cyclopenta[a]phenanthren-3(2H)-one] | > 50% | 1 to 50 min | > 0.1 µM | 
C[C@]12CCC3C(CCC4=CC(=O)CC[C@@]43C)C1=CC=C2c1cncnc1 (stereo partly drawn) [Compound 471, (10R,13S)-10,13-dimethyl-17-(pyrimidin-5-yl)-6,7,8,9,10,11,12,13-octahydro-1H-cyclopenta[a]phenanthren-3(2H)-one] |  | 1 to 50 min |  | IC50 [2, 8]: < 0.011 µM; inhibition at 0.001 µM [1, 6]: > 50%; IC50 [4, 9]: 0.01 to 0.1 µM
CCC1CC2C3=CC=C(c4cccnc4)[C@@]3(C)CCC2[C@@]2(C)CCC(=O)C=C12 (stereo partly drawn) [Compound 482, (10R,13S)-6-ethyl-10,13-dimethyl-17-(pyridin-3-yl)-6,7,8,9,10,11,12,13-octahydro-1H-cyclopenta[a]phenanthren-3(2H)-one] | 10 to 50% | 1 to 50 min | 0.01 to 0.1 µM | IC50 [2]: < 0.011 µM
